In article PMC6105804, “In Vitro and In Vivo Evaluation of APX001A/APX001 and Other Gwt1 Inhibitors against Cryptococcus” (Antimicrobial Agents and Chemotherapy, 2018):
Where two headings read alike, the source gives them in different places.

Legend:
[1] = Single-dose mouse pharmacokinetics of prodrugs with or without ABT; assay type: in vivo; details: for AUC: male, CD-1, mouse, plasma, 26 mg/kg
Experimental: The area under the curve (AUC) was calculated from time zero to the time of the last measurable concentration. The active metabolite concentrations in plasma (APX001A, APX2039, APX2020, and APX2041) were determined by liquid chromatography-tandem mass spectrometry. PK parameters were determined using Phoenix WinNonlin (v7.0) software and a noncompartmental model.

[2] = system: Candida tropicalis strains; set-up: method as in ref 24 = [24]; 24. Watanabe NA , Horii T , Miyazaki M , Hata K 2011 In vitro activity of E1210 and in vivo activity of E1211, a water-soluble prodrug of E1210, in combination with other antifungals, abstr F1-1378 .; details: cited from earlier work
[3] = set-up: method as in ref 23 = [23]; 23. Zhao Y , Lee M , Lee A , Paderu P , Park S , Perlin DS 2018 APX001 is effective against echinocandin and multi-drug resistant Candida isolates . Abstr 28th ECCMID , Madrid, Spain .; details: female CD-1 mice, cited from earlier work
C. neoformans strain H99 = test: Murine model of cryptococcal meningitis, APX001 alone and with FLC (no ABT); assay type: in vivo, Cryptococcus neoformans; details: monotherapy 7 days; APX001 390 mg/kg TID oral gavage, FLC 80 mg/kg/day i.p.; male CD-1 mice
Experimental: The efficacies of APX001 and FLC were evaluated in a well-established mouse CM model ([34]). Since Cryptococcus infections can be hematogenously disseminated to other organs, the numbers of CFU in both lung and brain tissue were evaluated. Male CD-1 mice were infected with 5.9 × 10^4 CFU of C. neoformans strain H99 via lateral tail vein injection. Mice were assigned to four groups (n = 10), consisting of (i) treatment with APX001, (ii) treatment with APX001 plus FLC, (iii) treatment with FLC, or (iv) no treatment as a control. Treatment was initiated within 1 h after infection. APX001 was administered by oral gavage at a dose of 390 mg/kg thrice daily (TID), with each dose being administered roughly 8 h apart. […] FLC (2 mg/ml; Sagent Pharmaceuticals, Schaumburg, IL) was administered at a dose of 80 mg/kg/day intraperitoneally (i.p.).
Brain and lung burdens in mice were measured at 7 days postinfection with C. neoformans H99. Male CD-1 mice were infected with 5.9 × 10^4 CFU of C. neoformans strain H99 via the lateral tail vein. Treatment was initiated at about 1 h postinfection and continued for 7 days. APX001 was administered by oral gavage at a dose of 390 mg/kg thrice daily, with each dose being administered roughly 8 h apart. FLC (2 mg/ml; Sagent Pharmaceuticals, Schaumburg, IL) was administered at a dose of 80 mg/kg/day i.p. once daily. Fungal burden data were log10 transformed and evaluated using Kruskal-Wallis tests with Dunn's multiple-comparison test for post hoc analysis (Prism software, v5; GraphPad Software, Inc., San Diego, CA). A P value of ≤0.05 was considered statistically significant (*, P ≤ 0.05; **, P ≤ 0.01; ***, P ≤ 0.001). The 95% confidence interval (CI) is presented.
C. neoformans strain H99 was grown in yeast extract-peptone-dextrose broth at 30°C on a shaker (220 rpm) for 24 h, centrifuged (1,980 relative centrifugal force), and washed twice in phosphate-buffered saline (PBS), resuspended in PBS, and quantified by hemacytometric count. Male CD-1 mice were infected with ∼5 × 10^4 CFU per mouse via lateral tail vein injection of 100 μl. Mice were weighed, and treatment was begun within 1 h after infection. Treatments were administered daily for 7 days. Mice were weighed daily and observed for acute and chronic adverse symptoms. Mice were sacrificed on day 8, and the brain and left lung were homogenized and cultured for quantitative determination of the tissue burden (number of CFU per gram of tissue). Tissues were homogenized for 25 s in 1 ml phosphate-buffered saline using two 6.5-mm steel beads and a Mini-Beadbeater 16 apparatus (Biospec Products, Inc., Bartlesville, OK) and serially diluted in 10-fold steps. Aliquots (100 μl) of homogenate were plated and incubated for 3 to 7 days at 37°C. Fungal burden data were log10 transformed and evaluated using Kruskal-Wallis tests with Dunn's multiple-comparison test for post hoc analysis (Prism software, v5; GraphPad Software, Inc., San Diego, CA). A P value of ≤0.05 was considered statistically significant.

[4] = 100-mg/kg ABT orally 2 h prior to APX001 i.p.

| Ratio of AUC with ABT/AUC without ABT, i.p. dosing ([1]; 26 mg/kg prodrug) | Ratio of AUC with ABT/AUC without ABT, p.o. dosing ([1]; 26 mg/kg prodrug) | AUC ([1]; intraperitoneal, AUC of analyte after 26 mg/kg prodrug, 100 mg/kg ABT orally 2 h before, read-out: Avg AUC resulting from 26-mg/kg dose, i.p. dosing + ABT) | AUC ([1]; ip, AUC of analyte after 26 mg/kg of the corresponding prodrug, male CD-1 mice, no ABT, read-out: Avg AUC resulting from 26-mg/kg dose, i.p. dosing) | AUC ([1]; po, AUC of analyte after 26 mg/kg prodrug, 100 mg/kg ABT orally 2 h before, read-out: Avg AUC resulting from 26-mg/kg dose, p.o. dosing + ABT) | AUC ([1]; po, AUC of analyte in plasma after 26 mg/kg of the corresponding prodrug, male CD-1 mice, no ABT, read-out: Avg AUC resulting from 26-mg/kg dose, p.o. dosing) | SMILES | strains with synergy with FLC [2] | fold increase in AUC with ABT [3, 4] | half-life of the active moiety with ABT [3, 4] | half-life of the active moiety without ABT ([3]; APX001 i.p.) | reduction in brain fungal burden vs untreated control (C. neoformans strain H99) | reduction in lung fungal burden vs untreated control (C. neoformans strain H99) |
| --- | --- | --- | --- | --- | --- | --- | --- | --- | --- | --- | --- | --- |
| 5.6 | 15.0 | 24300 ± 17700 ng·h/mL | 4360 ± 110 ng·h/mL | 41500 ± 8090 ng·h/mL | 2760 ± 230 ng·h/mL | Nc1ncccc1-c1cc(Cc2ccc(COc3ccccn3)cc2)no1 [APX001A] | 9 of 10 | 9 fold | 8.8 h | 1.3 h | – | – |
| – | – | – | – | – | – | OC(Cn1cncn1)(Cn1cncn1)c1ccc(F)cc1F [FLC, fluconazole, reference compound] | – | – | – | – | 1.04 log10 CFU/g | 1.30 log10 CFU/g |
